This note sets out measurements from patent US6867283B2, “Peptides capable of binding to MHC molecules, cells presenting such peptides, and pharmaceutical compositions comprising such peptides and/or cells” (Technion Research & Development Foundation Ltd., priority 2001, dated 2005).

The subject of test [1] is EL4-HHD cells loaded with the peptides. Briefly: Cytotoxic T lymphocytes assay after immunization of HHD transgenic mice with peptide-loaded cells. In kind it is in vivo. As to conditions: compared to negative control peptide ALLCAPSLL; effector-to-target ratio of 50:1 shown. The source says:
Cells were loaded separately with individual peptides, washed and injected in four groups: 1-p1028 (SEQ ID NO:13) alone, 2- p1258 (SEQ ID NO:24) alone, 3-pool of peptides: p913 (SEQ ID NO:5), p958 (SEQ ID NO:9), p989 of CD59 (SEQ ID NO:11) and p989 of FLI (SEQ ID NO:12), 4- peptides p1031 (SEQ ID NO:14), p1121 (SEQ ID NO:22) and p1068 (SEQ ID NO:16). Unloaded EL4-HHD or targets cells not loaded with the peptides were used as negative controls. An effector-to-target ratio of 50:1 is shown,
Transgenic mice expressing a single chain HLA-A2.1/Db-β2 m which are double knockout for H-2 Db and for β2 m (HHD mice) were immunized four times intra-peritoneally at 7-day interval with 2×10^6 irradiated (5,000 rad) RMA-S-HHD-B7.1 cells loaded for two hours at 26° C. followed by two hours at 37° C. with 100 μM of the synthetic peptides. Ten days after the last immunization the spleens were removed from the vaccinated mice. Splenocytes were re-stimulated with 100 μM of synthetic peptides for five days. Viable lymphocytes were separated by lympholyte-M (Cadarlane, Hornby, Canada) and resuspended in RPMI-HEPES. Cytotoxic activity was measured as in [26] by admixing the lymphocytes at different ratios with 5×10^3 EL4-HHD cells grown in medium containing ^35S methionine and then loaded wit the synthetic peptides.
To further evaluate the affinity of the peptides to the HLA-A2 and to obtain some insight into their immunogenic potential, selected peptides were tested for their ability to induce an immune response in HLA-A2 transgenic mice. It was assumed that only peptides that could be effectively presented and remain tightly bound to the cells would be capable of inducing an immune response in these mice. The same synthetic peptides that were used for the FACS analysis were used for immunization of the HHD transgenic mice, which express the human HLA-A2.1/Db-β2 m single chain. To immunize the mice, the HHD culture cells were loaded with the different peptides and then injected to the HHD mice. The immune response in the mice was followed by the appearance of CTLs specific for these peptides. Some of the peptides were indeed capable of inducing an immune response, which both authenticate them as MHC bound peptides and gives an indication about their immunogenic potential.

The subject of the next test is T1, HLA-A2.1.
T1 construct: expressed in transfected cells; host or cells: RMA-S (murine TAP-2 deficient lymphoma, C57BL/6 origin)
Briefly: Stabilization of cell surface HLA-A2.1 by peptide binding (reconstitution into empty MHC on RMA-S-HHD cells, FACS). As to conditions: synthetic peptide 100 μM, FACS with W6/32 mAb. It is filed as cell-based, human. The protocol: Synthetic peptides were added to 10^6 RMA-S-HHD cells to a concentration of 100 μM followed by incubation for two hours at 26° C. and two hours at 37° C. […] The HLA-A2.1 peptide derived from gp100 served as a positive control and unloaded RMA-S-HHD cells as a negative control.
RMA-S-HHD cells were washed three times with PBS followed by incubation overnight in FCS-free IMDM medium at 26° C. Synthetic peptides were added to 10^6 cells at a concentration of 100 μM. The cells were incubated for two hours at 26° C. followed by two hours at 37° C. […] (Sigma).
Another approach to ascertain that the identified peptides were indeed MHC bound peptide antigens, their capacity to bind tightly and stabilize cell surface HLA-A2.1 was tested by reconstitution into empty MHC on the surface of RMA-S-HHD cells.

T1 sequence (P61769 with tags, fused parts or gaps): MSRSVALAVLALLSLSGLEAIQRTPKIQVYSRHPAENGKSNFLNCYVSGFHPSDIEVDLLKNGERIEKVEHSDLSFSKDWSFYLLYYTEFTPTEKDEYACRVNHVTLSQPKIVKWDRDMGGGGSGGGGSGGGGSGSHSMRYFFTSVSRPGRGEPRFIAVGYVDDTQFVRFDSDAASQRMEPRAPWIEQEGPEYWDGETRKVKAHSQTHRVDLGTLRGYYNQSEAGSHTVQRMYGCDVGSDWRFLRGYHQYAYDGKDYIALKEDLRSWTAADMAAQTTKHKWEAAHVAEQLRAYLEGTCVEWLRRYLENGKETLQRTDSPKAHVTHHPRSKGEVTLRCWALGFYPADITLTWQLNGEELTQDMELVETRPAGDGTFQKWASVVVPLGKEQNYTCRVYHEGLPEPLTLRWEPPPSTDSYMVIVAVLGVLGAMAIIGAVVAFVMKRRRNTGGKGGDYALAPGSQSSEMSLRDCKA

In the case of ALSDHHIYL, the “lysis of peptide-loaded EL4-HHD cells by CTLs from immunized HHD mice” value (“lysis of peptide-loaded EL4-HHD cells” below) in test [1] is “significant lysis”.
For GVYDGEEHSV, the “binding affinity to HLA-A2 / stabilization of empty MHC on the surface of RMA-S-HHD cells” value in the test with HLA-A2.1 is given as “normal”.
Take FLFDGSPTYVL: in test [1], the “lysis of peptide-loaded EL4-HHD cells” value is recorded as “significant lysis”.
On to TLWVDPYEV, for which the “lysis of peptide-loaded EL4-HHD cells” value in test [1] is recorded as “significant lysis”.
On the same count and under the same terms, to GLIEKNIEL belongs “significant lysis”.
